{"source": "patent US20170049718A1", "about": "“DRUG FOR TREATMENT OF TINNITUS PATIENTS” (KYORIN PHARMACEUTICAL CO., LTD., priority 2014, published 2017)", "key": {"[1]": {"target": "α9/α10 nicotinic acetylcholine receptors (Rattus norvegicus, UniProt P43144+Q9JLB5)", "sequence (P43144 26-479)": "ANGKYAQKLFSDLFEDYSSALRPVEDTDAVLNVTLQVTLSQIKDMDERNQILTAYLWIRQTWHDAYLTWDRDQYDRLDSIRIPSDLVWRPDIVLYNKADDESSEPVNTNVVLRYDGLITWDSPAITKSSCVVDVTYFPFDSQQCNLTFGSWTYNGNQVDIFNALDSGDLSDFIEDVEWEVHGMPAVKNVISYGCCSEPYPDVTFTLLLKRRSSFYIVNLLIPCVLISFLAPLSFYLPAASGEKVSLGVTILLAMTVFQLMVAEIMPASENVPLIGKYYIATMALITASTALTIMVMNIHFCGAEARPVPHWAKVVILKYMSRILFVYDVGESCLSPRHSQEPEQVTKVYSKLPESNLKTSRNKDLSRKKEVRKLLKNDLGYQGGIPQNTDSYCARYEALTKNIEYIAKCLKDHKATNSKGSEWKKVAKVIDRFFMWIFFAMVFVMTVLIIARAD", "sequence (Q9JLB5 25-447)": "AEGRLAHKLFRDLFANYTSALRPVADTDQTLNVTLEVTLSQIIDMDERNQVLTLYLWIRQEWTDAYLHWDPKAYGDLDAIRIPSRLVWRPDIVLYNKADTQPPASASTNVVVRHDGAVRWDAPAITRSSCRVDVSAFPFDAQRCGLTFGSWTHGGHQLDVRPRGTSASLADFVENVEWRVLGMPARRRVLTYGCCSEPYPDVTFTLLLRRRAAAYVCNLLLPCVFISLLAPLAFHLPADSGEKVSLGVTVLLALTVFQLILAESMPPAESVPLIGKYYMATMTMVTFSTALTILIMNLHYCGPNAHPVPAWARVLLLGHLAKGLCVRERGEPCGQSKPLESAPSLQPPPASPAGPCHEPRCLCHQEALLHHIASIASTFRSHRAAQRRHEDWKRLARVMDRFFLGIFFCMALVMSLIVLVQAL", "settings": "Plazas, et al., Eur J Pharmacol., 2007; cited from earlier work"}, "[2]": {"target": "T1, 5-HT3 receptors (Homo sapiens, UniProt P46098)", "T1 sequence (P46098 24-478)": "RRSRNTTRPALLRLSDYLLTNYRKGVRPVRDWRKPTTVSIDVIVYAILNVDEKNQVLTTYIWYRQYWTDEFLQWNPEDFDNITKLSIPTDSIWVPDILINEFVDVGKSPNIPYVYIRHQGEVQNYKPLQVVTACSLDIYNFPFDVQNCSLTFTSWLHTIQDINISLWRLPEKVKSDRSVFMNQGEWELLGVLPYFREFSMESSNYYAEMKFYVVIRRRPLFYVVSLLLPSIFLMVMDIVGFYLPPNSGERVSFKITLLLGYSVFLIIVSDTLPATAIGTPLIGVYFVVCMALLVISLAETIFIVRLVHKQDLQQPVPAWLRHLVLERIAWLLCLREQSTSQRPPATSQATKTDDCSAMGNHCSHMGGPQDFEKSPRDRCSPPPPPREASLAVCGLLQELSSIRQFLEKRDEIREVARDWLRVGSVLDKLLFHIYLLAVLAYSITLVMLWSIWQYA", "settings": "cited from earlier work"}, "[3]": {"system": "patients having tinnitus", "test": "24-week placebo controlled, randomized, double-blind comparative trial, TRSw score", "type": "in vivo, human", "design": "key to Change in TRSw score: LS mean change in TRSw score from week 0 to week 24; <0 = better", "settings": "for Change in TRSw score, Neramexane-placebo / Change in TRSw score: 24 weeks; for Change in TRSw score: 50 mg/day", "from_the_text": "A therapeutic effect can be evaluated by physician inquiry using a questionnaire form such as TRSw (Tinnitus Rating Scale One-Week Version) (Acta Otolaryngol., 2013, 133(5), 491-498).\nThe efficacy of neramexane mesylate on patients with tinnitus associated with age-related hearing loss, tinnitus associated with auditory disorder in the range of the human voice at an auditory threshold value exceeding 25 dB, tinnitus that includes two or more different tinnitus sounds or tinnitus that includes a tinnitus sound that is not high-frequency alone, was evaluated in a 24-week, placebo controlled, randomized, double-blind comparative trial.\nThe film coated tablets containing 12.5 mg neramexane mesylate or placebo tablets were administered for 24 weeks to patients having tinnitus. The dosage was started from 12.5 mg/day, gradually increasing the dose to 50 mg/day over 4 weeks, and maintaining the same dose thereafter.\nThe therapeutic effect of neramexane mesylate for the patients was evaluated using the TRSw score. Statistical analysis was performed using a mixed-effect model repeated measure (MMRM) taking into consideration the covariance structure of error for the patient, with the change in TRSw score from before administration of neramexane mesylate tablets or placebo tablets (0 weeks) to each evaluation time point as the response variable, and with the drug-administered group, evaluation time point, interaction between drug-administered group and evaluation time point, 0-week TRSw score, gender and body weight as […]. The numerical values in the table represent least mean squares for the change in TRSw score at 24 weeks after administration. A change in score of less than 0 indicates a higher therapeutic effect."}, "[4]": {"settings": "Tinnitus associated with age-related hearing loss at hearing threshold of 25 dB or more in both ears in 4000 Hz and 8000 Hz"}, "[5]": {"settings": "Tinnitus associated with age-related hearing loss at hearing threshold of 25 dB or more in both ears in 8000 Hz"}, "[6]": {"settings": "Tinnitus associated with age-related hearing loss, exhibiting auditory disorder (>25 dB) in the range of the human voice"}, "[7]": {"settings": "Tinnitus associated with auditory disorder (>25 dB) in the range of the human voice"}, "[8]": {"settings": "Tinnitus including tinnitus sound not of high-frequency alone"}, "[9]": {"settings": "Tinnitus including two or more different tinnitus sounds, associated with age-related hearing loss, exhibiting auditory disorder (>25 dB) in the range of the human voice"}, "[10]": {"settings": "Tinnitus including two or more different tinnitus sounds, associated with age-related hearing loss"}, "[11]": {"settings": "Tinnitus including two or more different tinnitus sounds"}}}
{"smiles": "CC1(C)CC(C)(C)CC(C)(N)C1", "note": "[Neramexane, 1-amino-1,3,3,5,5-pentamethylcyclohexane]", "values": [{"measurement": "inhibiting activity on α9/α10 nicotinic acetylcholine receptors", "setting": "[1]", "result": "exhibits inhibiting activity"}, {"measurement": "inhibiting activity on 5-HT3 receptors", "setting": "[2]", "result": "exhibits inhibiting activity"}, {"measurement": "Change in TRSw score, Neramexane-placebo", "setting": "[3]; [4]", "result": "−2.0"}, {"measurement": "Change in TRSw score", "setting": "[3]; [4]", "result": "−2.5"}, {"measurement": "Change in TRSw score, Neramexane-placebo", "setting": "[3]; [5]", "result": "−1.5"}, {"measurement": "Change in TRSw score", "setting": "[3]; [5]", "result": "−2.2"}, {"measurement": "Change in TRSw score, Neramexane-placebo", "setting": "[3]; [6]", "result": "−2.0"}, {"measurement": "Change in TRSw score", "setting": "[3]; [6]", "result": "−3.6"}, {"measurement": "Change in TRSw score, Neramexane-placebo", "setting": "[3]; Tinnitus associated with age-related hearing loss", "result": "−0.5"}, {"measurement": "Change in TRSw score", "setting": "[3]; Tinnitus associated with age-related hearing loss, least mean squares", "result": "−2.5"}, {"measurement": "Change in TRSw score, Neramexane-placebo", "setting": "[3]; [7]", "result": "−0.6"}, {"measurement": "Change in TRSw score", "setting": "[3]; [7]", "result": "−1.7"}, {"measurement": "Change in TRSw score, Neramexane-placebo", "setting": "[3]; [8]", "result": "−0.7"}, {"measurement": "Change in TRSw score", "setting": "[3]; [8]", "result": "−2.0"}, {"measurement": "Change in TRSw score, Neramexane-placebo", "setting": "[3]; [9]", "result": "−4.7"}, {"measurement": "Change in TRSw score", "setting": "[3]; [9]", "result": "−5.0"}, {"measurement": "Change in TRSw score, Neramexane-placebo", "setting": "[3]; [10]", "result": "−2.7"}, {"measurement": "Change in TRSw score", "setting": "[3]; [10]", "result": "−4.1"}, {"measurement": "Change in TRSw score, Neramexane-placebo", "setting": "[3]; [11]", "result": "−0.5"}, {"measurement": "Change in TRSw score", "setting": "[3]; [11]", "result": "−2.2"}, {"measurement": "therapeutic effect compared to placebo", "setting": "[3]; combined groups: age-related hearing loss with auditory disorder >25 dB, two or more sounds with age-related hearing loss, all three criteria", "result": "unexpectedly excellent therapeutic effect"}, {"measurement": "therapeutic effect compared to placebo", "setting": "[3]; single-criterion groups: age-related hearing loss, auditory disorder >25 dB in range of human voice, two or more tinnitus sounds, sound not high-frequency alone", "result": "superior therapeutic effect"}]}
